The subject of data set [1] is SK-N-BE(2) cells. The data set can be described thus: Neuronal differentiation of NB cells (neurite outgrowth). In kind it is cell-based, human. As to conditions: sub-lethal concentrations, 14-15 days.
Description: SK-N-BE(2) cells were grown for 15 days in 6 well-plates and treated twice per week with DMSO or compound, with and without NGF. Differentiation was assessed based on number and length of neuronal outgrowths using a phase contrast microscope (Axiovert 40 CFL, Zeiss) and the Axiovision Rel. 4.8 software.
Phase contrast micrographs show representative pictures from one out of 3 to 5 independent experiments.
Data set [2] can be described thus: Solubility in aqueous buffers (SPR running buffer). In kind it is physicochemical. The settings on record: could not be analyzed at concentrations above 50 µM. The procedure: (§1) For all SPR binding measurements the compounds were injected at increasing concentrations.
Data set [3] has as its system Burkitt's lymphoma cell line xenograft. Further details: method as in PMID 20801893. The settings on record: cited from earlier work.
Data set [4] concerns SK-N-BE(2) cells. The data set can be described thus: Oil Red O staining of lipids. As to conditions: sub-lethal concentrations, 3 days. In kind it is cell-based, human.
Description: To explore the effect on lipid accumulation of the small molecules studied here cells were treated with sub-lethal concentrations of the compounds and stained with Oil Red O in order to detect lipids.
SK-N-BE(2) cells grown on cover slips were fixed in 4% PFA, washed in PBS and then in 60% isopropanol before staining with filtered Oil Red O solution (2 mg/ml) in 60% isopropanol. Cells were washed briefly in distilled water and mounted onto glass slides using water-soluble mounting medium (Aqua Pertex, Histolab products AB). For visualization, bright field images were captured at 40X magnification using an Axiovert 40 CFL inverted fluorescence microscope (Zeiss) and Axiovision Rel. 4.8 software.
For data set [5], the system named is SK-N-BE(2) cells. The data set can be described thus: Apoptosis, propidium iodide sub G1 DNA content, SK-N-BE(2). In kind it is cell-based, human. The procedure: (§2) Figure 5 Growth inhibition and apoptosis induction in MYCN amplified cells. (A) The amount of viable of cells was determined using crystal violet assay following 48 hours treatment of Kelly cells with increasing concentration of the indicated compound. Data are shown as percent of control (DMSO) treated cells and represent the mean of three independent experiments. Error bars indicate standard deviation. (B) Pearson's correlation between the IC50 values in the growth inhibition assay (A, Table 2) and the KD values for binding to MYCN (Table 1). (C–D) Quantification of apoptosis by propidium iodide staining for sub G1 DNA content of SK-N-BE(2) (C) and Kelly (D) cells. Data represent the means of at least three independent experiments. Error bars indicate standard deviation. We next investigated the level of apoptosis induction in response to treatment with the molecules using two different MNA NB cell lines (Figure 5C, D). […] To verify the MYCN specificity in apoptosis induction, we next used Tet21N NB cells with doxycycline regulated MYCN expression. […] Small molecule-induced apoptosis was scored by quantifying the sub-G0/G1 fraction of the cell cycle. […] Cells were stained with propidium iodide solution (5 µg/ml propidium iodide and 25 µg/ml RNase A in PBS) for 30 min at 37°C and analyzed in a FACScan flow cytometer (Becton Dickinson). […]

Data set [6] deals with T1, bHLHZip domain of human MYCN (380–464) (Homo sapiens, UniProt P04198).
T1 construct: N-terminally His-tagged bHLHZip c-MYC (353–437) and bHLHZip MYCN (380–464) proteins were over-expressed in E. coli BL21 (DE3); made in house; host or cells: E. coli BL21 (DE3)
The data set can be described thus: Surface plasmon resonance binding to bHLHZip of MYCN. The settings on record: SPR, 25°C, steady state, mean ± SD. The procedure: as §1
In order to determine the affinity of the compounds to c-MYC and MYCN, the response for each small molecule was plotted against the analyte (compound) concentration. The KD was defined as the concentration of analyte at 50% of the experimental maximal Response (Rmax). Approximate KD-values could be determined for all compounds except for #764. […] In summary, all active c-MYC inhibitors tested were also found to bind directly to MYCN.
N-terminally His-tagged bHLHZip c-MYC (353–437) and bHLHZip MYCN (380–464) proteins were over-expressed in E. coli BL21 (DE3) bacteria (Stratagene) at 37°C in LB media with kanamycin. Cultures were induced with Isopropyl β-D-1-thiogalactopyranoside (0,1 mg/ml) at an OD of 0.6 and harvested after 4 hours. After sonication of the proteins in 50 mM NaH2PO4, 100 mM NaCl and 10 mM Tris-HCl (pH = 8,0) for 6×30 seconds, the pellet was resuspended in 100 mM NaH2PO4, 10 mM Tris-HCl, 10 mM imidazole and 8 M urea (pH = 8,0) prior to additional sonication for 6×30 seconds. The proteins were then loaded onto a Ni-Sepahrose High Performance His-Trap column (GE Healthcare), washed with ten column volumes of 100 mM NaH2PO4, 10 mM Tris-HCl, 40 mM imidazole and 8 M urea (pH = 8,0) and finally eluted with two column volumes 100 mM NaH2PO4, 10 mM Tris-HCl, 500 mM imidazole and 8 M urea (pH = 8,0). Fractions without visible higher molecular mass contaminations, as judged by SDS-page, were pooled and refolded by dialysis in 50 mM NaH2PO4, 100 mM NaCl, 10 mM Tris-HCl (pH = 8,0), 5 mM EDTA, 2 mM DTT and decreasing concentrations of urea (6 M, 4 M, 2 M and 0 M). […] Protein concentrations were determined by SDS-page comparing purified proteins to a standard curve of BSA loaded on the gel.
Surface Plasmon Resonance (SPR) experiments were performed using a Biacore T200 (GE Healthcare) instrument at 25°C. […] The obtained data was analyzed by the Biacore T200 Evaluation Software 2.0 (GE Healthcare). […]
Background: SPR reads the build-up and loss of mass on a sensor chip optically.

In data set [7] the test system is Kelly cells. The data set can be described thus: Apoptosis, propidium iodide sub G1 DNA content, Kelly. In kind it is cell-based, human. The procedure: as §2
Data set [8] relates to TH-MYCN transgenic mice. Further details: method as in PMID 23733953. As to conditions: cited from earlier work.
The test system of data set [9] is NB xenografts. Further details: method as in PMID 23733953. As to conditions: cited from earlier work.
The subject of data set [10] is xenograft models of prostate cancer. As to conditions: cited from earlier work.

These results are taken from article PMC4032254, “Targeting of the MYCN Protein with Small Molecule c-MYC Inhibitors” (PLoS ONE, 2014).

T1 sequence (P04198 380-464): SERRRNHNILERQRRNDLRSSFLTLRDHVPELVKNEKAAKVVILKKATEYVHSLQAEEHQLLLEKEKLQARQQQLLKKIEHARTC

The term Kd denotes the free concentration of one partner at which half of the binding sites on the other are occupied at equilibrium, for simple one-to-one binding. A higher Kd goes with a looser complex. Turning to `O=[N+]([O-])c1ccc(Nc2ccccc2-c2ccccc2)c2nonc12` [Compound 10074-G5], the morphological neuronal differentiation result in data set [1] was “evident neurite outgrowth”. For the same compound, the “solubility in aqueous buffers” value in data set [2] was “especially poor solubility in aqueous buffers”. For the same compound, the “antitumor activity in Burkitt's lymphoma xenograft” value in data set [3] is “failed to show any antitumor activity”. Also, the lipid droplet accumulation result in data set [4] is “smaller but more numerous lipid droplets”. In addition, the “apoptosis (cell death) induction relative to 10058-F4” value in [5] and in [7] was “more potent than 10058-F4 in inducing cell death” each time. Further, binding in data set [6] was put at a Kd of 19.2 µM.

As to `CCc1ccc(C=C2SC(=S)NC2=O)cc1` [Compound 10058-F4, [Z,E]-5-[4-ethylbenzylidine]-2-thioxothiazolidin-4-one], the “survival of TH-MYCN transgenic mice” value in [8] is on record as “increased the survival”. Moreover, the Kd in [6] amounted to 41.9 µM. In [9], the “anti-tumor effects in NB xenografts” value was “showed anti-tumor effects”. Besides, the “antitumor activity in prostate cancer xenografts” value in data set [10] is given as “no significant antitumor activity”.
